Laboratory results reported in US20220323476A1, “ANTIVIRAL PRODRUGS AND FORMULATIONS THEREOF” (priority 2019, published 2022).

Experiments:
[1] = Aqueous solubility (pH 7.4); details: aqueous medium at pH 7.4, pH 7.4, aqueous buffer
[2] = Single dose rat PK, subcutaneous aqueous suspension, plasma EFdA by LC-MS/MS; details: SC; for Cmax compared with EFdA itself / time with plasma levels of EFdA above LLOQ: single dose, 10 mg/kg equivalent of EFdA, 4 mg/mL, 0.5% CMC-Na/0.5% TWEEN-80
Method: Animals (Male SD rats ˜200-250 g and Male rhesus macaques ˜2-3 kg) were obtained from an approved vendor (SLAC Laboratory Animal Co. Ltd., Shanghai, China and/or Topgene Biotechnology, Wuhan city, Hubei Province, China).
Animals were fasted at least 12 hours prior to the administration. All animals had access to Certified Rodent and non-Rodent Diet (Catalog #M01-F, SLAC Laboratory Animal Cl. Ltd., Shanghai, China) ad libitum 4 hours post dosing.
The formulations were prepared on the day of dosing. Animals were dosed within four hours after the formulation is prepared. Two 20 μL aliquots of each formulation were removed from each of the formulation solutions, transferred into 1.5 mL of polypropylene microcentrifuge tubes and run dose validation by LC/UV or LC-MS/MS.
For SC dosing, the dose formulation was administered via subcutaneous injection following facility SOPs.
Approximately 200 μL blood was collected from saphenous vein at each time point for rats and 0.5 mL for rhesus macaques. All blood samples were transferred into microcentrifuge tubes containing 4 μL of K2EDTA (0.5M) as anti-coagulant and placed on wet ice until processed for plasma.
Blood: Blood samples were processed for plasma by centrifugation at approximately 4° C., 3000 g 15 min within half an hour of collection. Plasma samples was stored in polypropylene tubes, quick frozen over dry ice and kept at −70±10° C. until LC/MS/MS analysis.
If the carryover couldn't meet the criteria, then the percent of carryover should be estimated following in-house bioanalytical SOP.
Plasma concentration versus time data was analyzed by non-compartmental approaches using the Phoenix WINNONLIN 6.3 software program. Cmax, Tmax, T1/2, AUC(0-t), AUC(0-inf), MRT(0-t), MRT(0-inf), % F and graphs of plasma concentration versus time profile were reported.
Several prodrugs including EFdA (1) as a control were subjected to a single dose rat PK studies via subcutaneous route of administration. All were injected with equivalent doses of 10 mg/kg and concentration of 4 mg/mL of EFdA as an aqueous suspension formulation derived from 0.5% CMC-Na and 0.5% TWEEN-80.

[3] = Single dose rhesus macaque PK, subcutaneous aqueous suspension, plasma EFdA by LC-MS/MS
Method: The aqueous suspension formulations were derived from 0.25;% CMC-Na and 0.1;%/0.5% TWEEN-80 with equivalent concentration of 116 mg/mL and 319 mg/mL of EFdA for prodrug 5 and EFdA respectively.

[4] = male, rhesus monkey, plasma, sc, 50 mg/kg

Compound	solubility [1] [µg/mL]	half life and mean residence life compared with EFdA ([2]; 100 mg/kg equivalent dose, 120 mg/mL (prodrug 3) vs 319 mg/mL (EFdA))	Cmax compared with EFdA itself [2]	time with plasma levels of EFdA above LLOQ [2]	AUC(0-inf) [3, 4] [µM·h]	half-life [3, 4] [h]	time with plasma levels of EFdA above LLOQ ([3]; rhesus macaque, SC, single dose, 50 mg/kg equivalent of EFdA, 116 mg/mL)
C#C[C@]1(COC(=O)C(CC)CC)O[C@@H](n2cnc3c(N)nc(F)nc32)C[C@@H]1OC(=O)C(CC)CC [Compound 3, (2R,3S,5R)-5-(6-amino-2-fluoro-9H-purin-9-yl)-2-(((2-ethylbutanoyl)oxy)methyl)-2-ethynyltetrahydrofuran-3-yl 2-ethylbutanoate]	< 2	Enhanced	much lower than EFdA itself	more than a week			
C#C[C@]1(CO)O[C@@H](n2cnc3c(N)nc(F)nc32)C[C@@H]1O [Compound 1, (2R,3S,5R)-5-(6-amino-2-fluoro-9H-purin-9-yl)-2-ethynyl-2-(hydroxymethyl) tetrahydrofuran-3-ol]					135 ± 22.7	69 ± 14	
C#C[C@]1(COC(=O)Cc2ccccc2)O[C@@H](n2cnc3c(N)nc(F)nc32)C[C@@H]1OC(=O)Cc1ccccc1 [Compound 5, (2R,3S,5R)-5-(6-amino-2-fluoro-9H-purin-9-yl)-2-ethynyl-2-((2-phenylacetoxy)methyl) tetrahydrofuran-3-yl 2-phenylacetate]	< 2		much lower than EFdA itself	more than a week			more than a month
C#C[C@]1(COC(=O)C(C)C)O[C@@H](n2cnc3c(N)nc(F)nc32)C[C@@H]1OC(=O)C(C)C [Compound 2, (2R,3S,5R)-5-(6-amino-2-fluoro-9H-purin-9-yl)-2-ethynyl-2-((isobutyryloxy)methyl) tetrahydrofuran-3-yl isobutyrate]			much lower than EFdA itself	more than a week			
C#C[C@]1(COC(=O)CN)O[C@@H](n2cnc3c(N)nc(F)nc32)C[C@@H]1OC(=O)CN [Compound 14]	> 106000						
